For one experiment, the target named is T1, Human PD-L1/PD-1 (Homo sapiens, UniProt Q9NZQ7).
T1 construct: made in house; host or cells: HEK293T
Description: HTRF PD-1-Ig/PD-L1-His binding assay (human PD-L1). In short, it runs like this: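 Soluble Fc-fused PD-1 and His-tagged PD-L1 (truncated before the transmembrane region) were combined in dPBS with 0.1% (w/v) BSA and 0.05% (v/v) Tween-20. Binding was read by HTRF using europium cryptate anti-Ig antibody (1 nM final) and APC anti-His antibody (20 nM final).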

For experiment [1], the target named is T2, LK35.2-hPD-L1 cells / PE-labeled PD-1-Ig (Homo sapiens, UniProt Q9NZQ7).
T2 construct: expressed in transfected cells; host or cells: LK35.2 mouse B cell line
Description: LK35.2-hPD-L1 cell binding high-content screening assay. The format is cell-based. Particulars: cell binding assay, cell line not given. A digest of the protocol:
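Fluorescent PD-1-Ig binding to PD-L1-expressing LK35.2 cells, imaged after washing. Conditions: 1 nM PE-PD-1-Ig, 37 °C, 1 h, RPMI with 10% fetal calf serum.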

The mark [2] stands for this setting: cluster symbol, read-out: HTRF IC50 cluster.
[3] abbreviates: cluster symbol, read-out: CBA IC50 cluster.

Like-named read-outs stand apart in the source and are kept apart here. Starred links: 1 amine or outer side, 2 acyl side, 3 side chain; linkers in the order of their positions; H or OH if unused. Positions of bridges follow the written chain, without caps; N, C: chain ends. Non-standard residues stand in square brackets, D forms with d. Residues, ends and D or L forms follow the SMILES beside them. X10 = O=C([C@H](Cc1ccc(F)c(Cl)c1)N[*:1])[*:2]; NMeF = CN[C@@H](Cc1ccccc1)C(=O)O; NMeNle = CCCC[C@H](NC)C(=O)O; Sar = CNCC(=O)O

T1 sequence (Q9NZQ7 with tags, fused parts or gaps): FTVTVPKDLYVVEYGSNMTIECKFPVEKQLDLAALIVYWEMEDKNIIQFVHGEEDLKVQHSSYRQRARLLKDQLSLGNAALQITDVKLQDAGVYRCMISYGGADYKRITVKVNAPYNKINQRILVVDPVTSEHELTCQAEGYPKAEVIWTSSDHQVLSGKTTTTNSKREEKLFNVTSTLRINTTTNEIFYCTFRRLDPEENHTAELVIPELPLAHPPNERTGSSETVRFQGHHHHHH
T2 sequence (Q9NZQ7 19-290): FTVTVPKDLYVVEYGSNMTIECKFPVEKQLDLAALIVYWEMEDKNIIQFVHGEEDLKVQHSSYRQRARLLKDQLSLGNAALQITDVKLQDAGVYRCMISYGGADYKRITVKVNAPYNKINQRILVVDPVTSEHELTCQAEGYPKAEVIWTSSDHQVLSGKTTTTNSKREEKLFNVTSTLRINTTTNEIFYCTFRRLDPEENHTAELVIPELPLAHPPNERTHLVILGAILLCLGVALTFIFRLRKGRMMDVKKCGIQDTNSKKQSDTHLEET

Regarding `CCCC[C@H]1C(=O)N(C)CC(=O)N[C@@H](CC(=O)O)C(=O)N[C@@H](C(C)C)C(=O)N(C)[C@@H](Cc2ccccc2)C(=O)N[C@@H](Cc2ccc(O)cc2)C(=O)N(C)CC(=O)N[C@H](Cc2c[nH]c3ccccc23)C(=O)N[C@@H](Cc2ccc(O)cc2)C(=O)N[C@@H](CC(C)C)C(=O)N[C@H](C(=O)NCC(N)=O)CSCC(=O)N[C@@H](Cc2ccccc2)C(=O)N(C)[C@@H](Cc2ccccc2)C(=O)N1C` [Example 3563] (HELM PEPTIDE1{[O=C(C[*:3])[*:2]].F.[meF].[CCCC[C@@H](C(=O)[*:2])N(C)[*:1]].[Sar].D.V.[meF].Y.[Sar].[dW].Y.L.C.G.[am]}$PEPTIDE1,PEPTIDE1,1:R3-14:R3$$$V2.0), the 50% inhibitory concentration (IC50) is over 30.5 nM on Human PD-L1/PD-1 (setting [2]) and over 74.3 nM in experiment [1] (setting [3]).

With `CCCC[C@H]1C(=O)N(C)CC(=O)N[C@@H](CC(=O)O)C(=O)N[C@@H](C(C)C)C(=O)N(C)[C@@H](Cc2ccccc2)C(=O)N[C@H](Cc2ccc(O)cc2)C(=O)N(C)CC(=O)N[C@@H](Cc2c[nH]c3ccccc23)C(=O)N[C@H](Cc2ccc(O)cc2)C(=O)N[C@@H](CC(C)C)C(=O)N[C@H](C(=O)NCC(N)=O)CSCC(=O)N[C@@H](Cc2ccccc2)C(=O)N(C)[C@@H](Cc2ccccc2)C(=O)N1C` [Example 3564] (HELM PEPTIDE1{[O=C(C[*:3])[*:2]].F.[meF].[CCCC[C@@H](C(=O)[*:2])N(C)[*:1]].[Sar].D.V.[meF].[dY].[Sar].W.[dY].L.C.G.[am]}$PEPTIDE1,PEPTIDE1,1:R3-14:R3$$$V2.0), the IC50 on Human PD-L1/PD-1 (value given instead of cluster, read-out: HTRF IC50 value) was over 10000 nM; in experiment [1] (value given instead of cluster, read-out: CBA IC50 value), over 10000 nM.

With `CCCC[C@H]1C(=O)N(C)CC(=O)N[C@@H](CC(=O)O)C(=O)N[C@@H](C(C)C)C(=O)N(C)[C@@H](Cc2ccccc2)C(=O)N[C@@H](Cc2ccc(O)cc2)C(=O)N(C)CC(=O)N[C@@H](Cc2c[nH]c3ccccc23)C(=O)N[C@@H](Cc2ccc(O)cc2)C(=O)N2CCC[C@@H]2C(=O)N[C@H](C(=O)NCC(N)=O)CSCC(=O)N[C@@H](Cc2ccccc2)C(=O)N(C)[C@@H](Cc2ccccc2)C(=O)N1C` [Example 3565] (HELM PEPTIDE1{[O=C(C[*:3])[*:2]].F.[meF].[CCCC[C@@H](C(=O)[*:2])N(C)[*:1]].[Sar].D.V.[meF].Y.[Sar].W.Y.[dP].C.G.[am]}$PEPTIDE1,PEPTIDE1,1:R3-14:R3$$$V2.0), the half-maximal inhibitory concentration (IC50) on Human PD-L1/PD-1 (setting [2]) was over 30.5 nM; in experiment [1] (setting [3]), over 74.3 nM.

On to `CCCC[C@H]1C(=O)N(C)CC(=O)N[C@@H](CC(=O)O)C(=O)N[C@@H](C(C)C)C(=O)N(C)[C@@H](Cc2ccccc2)C(=O)N[C@@H](Cc2ccc(O)cc2)C(=O)N(C)CC(=O)N[C@@H](Cc2c[nH]c3ccccc23)C(=O)N(C)[C@@H](Cc2ccc(O)cc2)C(=O)N[C@@H](CC(C)C)C(=O)N[C@H](C(=O)NCC(N)=O)CSCC(=O)N[C@@H](Cc2ccccc2)C(=O)N(C)[C@@H](Cc2ccccc2)C(=O)N1C` [Example 3566] (HELM PEPTIDE1{[O=C(C[*:3])[*:2]].F.[meF].[CCCC[C@@H](C(=O)[*:2])N(C)[*:1]].[Sar].D.V.[meF].Y.[Sar].W.[meY].L.C.G.[am]}$PEPTIDE1,PEPTIDE1,1:R3-14:R3$$$V2.0), for which the IC50 at Human PD-L1/PD-1 (setting [2]) was over 30.5 nM; in experiment [1] (setting [3]) it was over 74.3 nM.

Consider `CCCC[C@H]1C(=O)N(C)CC(=O)N[C@@H](CC(=O)O)C(=O)N[C@@H](C(C)C)C(=O)N(C)[C@@H](Cc2ccccc2)C(=O)N[C@@H](Cc2ccc(O)cc2)C(=O)N(C)CC(=O)N[C@@H](Cc2c[nH]c3ccccc23)C(=O)N[C@@H](Cc2ccc(O)cc2)C(=O)N[C@@H](CC(C)C)C(=O)N[C@H](C(=O)NCC(N)=O)CSCC(=O)N[C@@H](Cc2ccc(F)c(Cl)c2)C(=O)N(C)[C@@H](Cc2ccccc2)C(=O)N1C` [Example 3567] ({CH2CO}-[X10][NMeF][NMeNle][Sar]DV[NMeF]Y[Sar]WYLCG-NH2; thioether N-13), for which the IC50 at Human PD-L1/PD-1 (setting [2]) fell in the range of 0.385 to 6.74 nM; in experiment [1] (setting [3]), 0.158 to 4.71 nM.

What is called IC50 is the point on the concentration scale where inhibition reaches its midpoint.

The record behind these values is patent US9850283B2, “Macrocyclic inhibitors of the PD-1/PD-L1 and CD80(B7-1)/PD-L1 protein/protein interactions” (BRISTOL-MYERS SQUIBB COMPANY, priority 2013, dated 2017).
